Where “and” joins values, the source holds several entries; their conditions need not be identical. Equal entries are not always repeated.
How the values were obtained:
[1] = Solubility in water / aqueous media; assay type: physicochemical
[2] = Blood pressure (BP) change in the cat contractility experiment (Table 3); assay type: in vivo
Procedure: (§1) Cats of either sex were anaesthetized with urethane/chloralose (120/60 mg/kg i.p.). In the course of the experiments, pentobarbital was injected intravenously (V. antebrachii ceph.) via a plastic tube. The intraduodenal (i.d.) application of compound was conducted by means of a plastic catheter, which was inserted into the duodenum.
(§2) Cats of either sex were anaesthetized as for pO2 measurement. After dissection of the skin of the calf muscles, the sciatic nerve was cut about 3 cm proximal to the knee. The tendon of the calf muscles was cut and connected with an isometric force transducer (SWEMA, SG 3). In order to maintain constant differences and a resting tension of 100 p, the hind limb was fixed at the tibia by means of a clamp. Direct stimulation of the muscles consisted of square wave pulses of 4 msec duration at a frequency of 2 Hz and at a voltage of 50 V. In order to keep the muscles wet and at a normal temperature, the muscles were continuously superfused by means of a NaCl-solution (0.9%, 38° C.). Femoral blood flow was restricted by a graded occlusion of the artery leading to a reduction of contractility by ca. 30%. After having reached a constant level of the contraction force, the vehicle (NaCl and Methocel, respectively) was injected, followed by the test substance.

[3] = system: ischaemic skeletal muscle (m. gastrocnemius); assay: pO2 (oxygen tension) measurement in ischaemic skeletal muscle of anaesthetized cats; assay type: in vivo, cat; details: for effect of Compound A, ΔpO2: 125 μg/kg i.v.; for effect of Compound A, ΔpO2 / effect of Compound B, ΔpO2: individual cats; for change of pO2 of ischaemic skeletal muscle (in words): B and C at 5-32 mg/kg compared with Compound A at 125 μg/kg; for effect of Compound B, ΔpO2: 5 mg/kg i.v.
Procedure: pO2 was measured polarographically using Pt-needle electrodes (modified according to Baumgartl and Lubbers, 1973). The reference electrode, an Ag/A/AgCl system was sputtered on the glass mantle of the cathode, or it was a separate electrode. The cathode was coated with a polystyrol and a collodium membrane. A constant voltage supply provided a polarizing voltage between 600 and 800 mV. The reducing current was measured by a nano-ampere amplifying meter. The cathode was inserted in the tissue by means of a motor-driven micromanipulator.
A pO2 -electrode was inserted in the muscle tissue (m. gastrocnemius) of both hindlegs of an anaesthetized cat. After recording the pO2 of the normal perfused muscle, the blood flow to one measuring site was restricted by ligating the femoral artery. The pO2 dropped steeply and the tissue became ischaemic. After a few minutes, the pO2 increased and then decreased again. The values were constant after 30 to 60 min. After having reached a constant level of pO2, the vehicle was given, followed by the test substance.
The mean value and the standard deviation were calculated, in order to check the significance of the effect.

[4] = system: ischaemic skeletal muscle (calf muscles); assay: Skeletal muscle contractility in anaesthetized cats with restricted femoral blood flow; assay type: in vivo, cat; details: for change of contractility of ischaemic skeletal muscle (in words) / contractility (% initial value): cat; for change of contractility of ischaemic skeletal muscle (in words): B and C at 5-32 mg/kg compared with Compound A at 125 μg/kg; for contractility (% initial value): ischaemic muscle
Procedure: as §1, §2

[5] = in vivo; cited from earlier work
[6] = control (hind limb not ligated)
[7] = contractility and pO2 of ischaemic skeletal muscle, cat
[8] = i.d., Compound A 125 μg/kg, Compound B 32 mg/kg, Compound C 12.5 mg/kg
[9] = i.v., Compound A 50 μg/kg, Compound B 5 mg/kg

CCCCn1c(=O)c2c(ncn2CC(C)=O)n(CCCC)c1=O [Compound A, 1,3-di-n-butyl-7-(2-oxopropyl)xanthine]
solubility in aqueous media (in words) ([1]; aqueous media): only sparingly soluble | Δ initial phase BP decrease, t (time interval to reach initial values) ([2]; 50 μg/kg i.v.): 2 min | Δ second phase BP increase, t (time interval to reach initial values) ([2]; 50 μg/kg i.v.): 33 min | Δ initial phase BP decrease ([2]; 50 μg/kg i.v., mean, n 4): -14.0 percentage of initial values | Δ second phase BP increase ([2]; 50 μg/kg i.v., mean, n 4): +17.0 percentage of initial values | Δ initial phase BP decrease, t (time interval to reach initial values) ([2]; 125 μg/kg i.v.): 3 min | Δ second phase BP increase, t (time interval to reach initial values) ([2]; 125 μg/kg i.v.): 32 min | Δ initial phase BP decrease ([2]; 125 μg/kg i.v., mean): -23.1 percentage of initial values | Δ second phase BP increase ([2]; 125 μg/kg i.v., mean): +10.8 percentage of initial values | Δ initial phase BP decrease ([2]; 313 μg/kg i.v., n = 1): -25.0 percentage of initial values | Δ initial phase BP decrease, t (time interval to reach initial values) ([2]; 313 μg/kg i.v., n = 1): 2 min | Δ second phase BP increase ([2]; 313 μg/kg i.v., n = 1): +15.0 percentage of initial values | Δ second phase BP increase, t (time interval to reach initial values) ([2]; 313 μg/kg i.v., n = 1): 6 min | effect of Compound A, ΔpO2 [3, 6]: 13.2 Torr and 3.8 Torr and 3.5 Torr and 19.3 Torr and 3.4 Torr | effect of Compound A, ΔpO2 ([3]; hind limb art. ligation): 6.2 Torr and 7.3 Torr and 5.2 Torr and 27.1 Torr and 11.2 Torr and 5.6 Torr | change of pO2 of ischaemic skeletal muscle (in words) ([3]; cat): distinct increase | high activity in the μg-range (dose range) [3, 7]: 0.05 to 0.125 mg/kg | Δ muscle contract., t (time interval to reach initial values) ([4]; 50 μg/kg i.v.): > 60 min | Δ muscle contract. ([4]; 50 μg/kg i.v., mean, n 4): +36.0 percentage of initial values | Δ muscle contract., t (time interval to reach initial values) ([4]; 125 μg/kg i.v.): > 60 min | Δ muscle contract. ([4]; 125 μg/kg i.v., mean): +19.0 percentage of initial values | Δ muscle contract. ([4]; 313 μg/kg i.v., n = 1): +25.0 percentage of initial values | Δ muscle contract., t (time interval to reach initial values) ([4]; 313 μg/kg i.v., n = 1): > 60 min | change of contractility of ischaemic skeletal muscle (in words) [4]: distinct increase | contractility (% initial value) [4, 8]: 32 % initial value | contractility (% initial value) [4, 9]: 36 % initial value

CC(=O)CCCCn1c(=O)c2c(ncn2C)n(C)c1=O [Compound B, pentoxyphylline, reference compound]
effect of Compound B, ΔpO2 [3, 6]: 0.3 Torr and 1.02 Torr and -2.4 Torr and 14.3 Torr and -0.9 Torr | effect of Compound B, ΔpO2 ([3]; hind limb art. ligation): -0.16 Torr and -1.5 Torr | Mean effect of Compound B compared to Compound A ([3]; B 5 mg/kg vs A 125 μg/kg, i.v.): 21.3% | change of pO2 of ischaemic skeletal muscle (in words) ([3]; cat): less pronounced | change of contractility of ischaemic skeletal muscle (in words) [4]: less pronounced | contractility (% initial value) [4, 8]: 23 % initial value | contractility (% initial value) [4, 9]: 9 % initial value | oral toxicity (in words) [5]: low oral toxicity

CCCCn1c(=O)c2c(ncn2CCC(C)=O)n(CCCC)c1=O [Compound C, 1,3-di-n-butyl-7-(3-oxobutyl)xanthine, reference compound]
water solubility (in words) ([1]; water, reason for not testing i.v.): low water solubility | change of pO2 of ischaemic skeletal muscle (in words) ([3]; cat): less pronounced | dose range of activity [3, 7]: 5 to 32 mg/kg | change of contractility of ischaemic skeletal muscle (in words) [4]: less pronounced | contractility (% initial value) [4, 8]: 22 % initial value

Reference: US4256750A, “Pharmaceutical compositions” (Wulfing; Johann A., priority 1979, dated 1981)
